Literature values as cited in patent US20200261395A1, “METHOD FOR TREATMENT OF ROSACEA” (Sol-Gel Technologies Ltd., priority 2019, published 2020).

Tested on: rosacea lesions
Details: BPO as sole active agent

**Q.** For `O=C(OOC(=O)c1ccccc1)c1ccccc1` [BPO, Benzoyl peroxide], which “Response of rosacea lesions” value is on record?
**A.** unresponsive
